Assay in all cases: Substrate saturation kinetic analysis of purified GLYAT
Test [1] has as its target GLYAT variant SEQ ID NO:7 (derived from SEQ ID NO:1 and 2) (Bacillus licheniformis, UniProt Q65LG7, A28V/D131E/E119K/E14D/E65Q/E67K/E68K/E79G/E83D/G37R/G38S/G48A/I132L/I135A/I15L/I19V/I2L/I53V/I91V/K101R/K144R/K58Q/L105M/L106I/L26I/L36T/L97I/M75V/N109F/R47G/R92K/T33S/T89S/V114A/Y130F/Y31W/Y45F). The class given is biochemical. The protocol:
(§1) E. coli cultures in LB or 2×YT were grown overnight at 37° C. to saturation. The cells were used as a 2% inoculum into fresh media. When OD reached 0.6, IPTG was added to 0.2 mM and growth was continued for at least 6 hours. Cells were harvested by centrifugation and stored at −80° C. Cells were lysed with BPER (Pierce) containing 1 mM dithiothreitol, 0.2 mg/ml lysozyme, 2 mg/ml protease inhibitor cocktail (Sigma bacterial cell cocktail, P8465) and endonuclease. Lysate supernatants were passed through a column of NHS-activated Agarose (Thermo, #26197) derivatized with coenzyme A. Columns were washed with 25 mM Hepes, pH 7, containing progressively higher concentrations of KCl, then eluted with 25 mM Hepes, 100 mM KCl, 10% ethylene glycol and 1 mM acetyl CoA. Purity as evaluated by polyacrylamide gel electrophoresis was deemed consistently high enough to be assumed to be 100%. Protein concentration was determined with the Bradford assay using a large-scale lot of produced GLYAT protein as standard.
(§2) Kinetic parameters for various substrates were obtained using a range of seven substrate concentrations plus a blank containing none of the varied substrate. The non-varied substrate was present at a saturating concentration. Six-microliter aliquots of 50-fold concentrated stock solutions of the varied substrate were placed in a 96-well assay plate (Greiner BioOne UV-Star). Reactions were started with the addition of 294 ul of 25 mM Hepes, pH 7.0, 100 mM KCL, 10% ethylene glycol, the non-varied substrate and 10 to 200 nM enzyme. Absorbance was monitored for one minute with a Spectramax 384 Plus plate reader (Molecular Devices). If the amino acid present at position 30 (29 if alanine is absent at position 2) was cysteine, absorbance was monitored at 235 nm, which directly detects cleavage of the sulfoester bond of acetyl CoA. If the amino acid present at position 30 (29 if alanine is absent at position 2) was isoleucine, 0.5 mM 5,5′-dithiobis-(2-nitrobenzoic acid), which reacts with the coenzyme A thiol generated in the enzyme catalyzed reaction, was included in the reaction mix and absorbance was monitored at 412 nm. Initial rates were processed by the Softmax software to obtain kinetic parameters, using the double-reciprocal transformation.

Test [2] has as its target T1, native GLYAT (glyphosate-N-acetyltransferase), SEQ ID NO:173 (Bacillus licheniformis, UniProt Q65LG7).
T1 sequence (Q65LG7 1-146): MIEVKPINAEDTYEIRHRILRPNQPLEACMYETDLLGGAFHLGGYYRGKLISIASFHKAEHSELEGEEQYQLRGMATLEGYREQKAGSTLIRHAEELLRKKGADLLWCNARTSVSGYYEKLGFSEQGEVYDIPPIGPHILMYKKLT
The class given is biochemical. Conditions: Table 5; native GLYAT SEQ ID NO:173; ratio of kcat/Km asp to kcat/Km glyph. The protocol: as §1, §2

In test [3] the target is novel GLYAT variants of Table 3 (high specificity variants derived from SEQ ID NO:1 and 2) (Bacillus licheniformis, UniProt Q65LG7). The class given is biochemical. Conditions: lowest value in novel variants. The protocol: as §1, §2
Test [4] deals with GLYAT variant SEQ ID NO:3 (derived from SEQ ID NO:1 and 2) (Bacillus licheniformis, UniProt Q65LG7, A28V/D131E/E119K/E14D/E65Q/E67K/E68K/E83D/G37R/I132T/I135V/I15L/I19V/I2L/I53V/I91V/K101R/K144R/K58Q/L105M/L106I/L26I/L97I/M75V/R47G/R92K/T89S/V114A/Y130F/Y45F). The settings on record: pH 7.0.
For test [5], the target named is GLYAT variant SEQ ID NO:4 (derived from SEQ ID NO:1 and 2) (Bacillus licheniformis, UniProt Q65LG7, D131E/E14D/E65Q/E67K/E68K/G37R/G38S/I132T/I135A/I15L/I19V/I53V/I91V/K101R/K144R/K58Q/L105M/L26I/L36T/L97I/M75V/R47G/R92K/T33S/T89S/V114A/Y130F/Y31F/Y45F). Conditions: pH 7.0.
The target in test [6] is GLYAT variant SEQ ID NO:5 (derived from SEQ ID NO:1 and 2) (Bacillus licheniformis, UniProt Q65LG7, A28V/D131E/E14D/E65Q/E67K/E68K/G37R/I132T/I135A/I15L/I19V/I53V/I91V/K101R/K144R/K58Q/L105M/L106I/L26I/L97I/M75V/R47G/R92K/T89S/V114A/Y130F/Y45F). Conditions: pH 7.0.
The target of test [7] is GLYAT variant SEQ ID NO:8 (derived from SEQ ID NO:1 and 2) (Bacillus licheniformis, UniProt Q65LG7, A28V/D131E/E119K/E14D/E65Q/E67K/E68K/E83D/G37R/G38S/I132T/I135A/I15L/I53V/I91V/K101R/K144R/K58Q/L105M/L106I/L26I/L36T/L97I/M75V/N8S/R47G/R92K/T89S/V114A/Y130F/Y45F). Conditions: pH 7.0.
The target of test [8] is GLYAT variant SEQ ID NO:10 (derived from SEQ ID NO:1 and 2) (Bacillus licheniformis, UniProt Q65LG7, A28V/D131E/E14D/E65Q/E67K/E68K/G37R/G38S/H61R/I132T/I135A/I15L/I19V/I53V/I91V/K101R/K144R/K58Q/L105M/L106I/L26I/L97I/M75V/R47G/R92K/T89S/V114A/Y130F/Y45F). Conditions: pH 7.0.
Setting [9] is: pH 7.0, non-varied substrate saturating.

Consider `N[C@@H](CC(=O)O)C(=O)O` [aspartate], for which the “Asp as % of glyph (kcat/KM asp / kcat/KM glyph)” value in test [1] (pH 7.0) is 0.154%; in test [4] it was 0.403%; in test [5] it was 0.210%; in test [6] it was 0.059%; in test [7], 0.079%; in test [8], 0.091%. Besides, the “kcat (aspartate)” value in test [1] (setting [9]) was 1.52 s⁻¹. In test [1] (setting [9]), the “kcat/KM (aspartate)” value was determined as 13.7 M⁻¹ s⁻¹. Besides, in test [2], the “kcat/Km asp, % glyph” value came out at 55.6%. Besides, in test [3], the “specificity (kcat/KM asp/kcat/KM glyph)” value is listed as at least 0.014%. Besides, the kcat/KM with aspartate in test [3] (25 mM Hepes, pH 7.0) is at least 1.7 M⁻¹ s⁻¹.

For the origin of these results see US11236354B2, “Glyphosate-n-acetyltransferase (GLYAT) sequences and methods of use” (PIONEER HI-BRED INTERNATIONAL, INC., priority 2013, dated 2022).
